Test system: patients with relapsed/refractory immune thrombocytopenia
Test: Phase 1/2 study (NCT03395210) Part A, safety;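 further: adverse events graded by NCI CTCAE version 4.0, with worsening of pre-existing conditions counted as adverse events, analysed in the Safety Population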
[1] = patients who initiated at all doses

CC(C)(C=C(C#N)C(=O)N1CCC[C@@H](n2nc(-c3ccc(Oc4ccccc4)cc3F)c3c(N)ncnc32)C1)N1CCN(C2COC2)CC1 [rilzabrutinib, (R)-2-[3-[4-amino-3-(2-fluoro-4-phenoxy-phenyl)pyrazolo[3,4-d]pyrimidin-1-yl]piperidine-1-carbonyl]-4-methyl-4-[4-(oxetan-3-yl)piperazin-1-yl]pent-2-enenitrile]
Fatigue, TEAEs Due to Any Cause, Grade 2 (Safety Population, N = 60): 2 (3) number of patients (percent)
Fatigue, Treatment-Related TEAEs, Any grade (Safety Population, N = 60): 6 (10) number of patients (percent)
Fatigue, Treatment-Related TEAEs, Grade 1 (Safety Population, N = 60): 5 (8) number of patients (percent)
Fatigue, Treatment-Related TEAEs, Grade 2 (Safety Population, N = 60): 1 (2) number of patients (percent)
Frequent bowel movements, TEAEs Due to Any Cause, Any grade (Safety Population, N = 60): 1 (2) number of patients (percent)
Frequent bowel movements, TEAEs Due to Any Cause, Grade 2 (Safety Population, N = 60): 1 (2) number of patients (percent)
Frequent bowel movements, Treatment-Related TEAEs, Any grade (Safety Population, N = 60): 1 (2) number of patients (percent)
Frequent bowel movements, Treatment-Related TEAEs, Grade 2 (Safety Population, N = 60): 1 (2) number of patients (percent)
Gingival bleeding, TEAEs Due to Any Cause, Any grade (Safety Population, N = 60): 3 (5) number of patients (percent)
Gingival bleeding, TEAEs Due to Any Cause, Grade 1 (Safety Population, N = 60): 3 (5) number of patients (percent)
Headache, TEAEs Due to Any Cause, Any grade (Safety Population, N = 60): 7 (12) number of patients (percent)
Headache, TEAEs Due to Any Cause, Grade 1 (Safety Population, N = 60): 7 (12) number of patients (percent)
Headache, Treatment-Related TEAEs, Any grade (Safety Population, N = 60): 2 (3) number of patients (percent)
Headache, Treatment-Related TEAEs, Grade 1 (Safety Population, N = 60): 2 (3) number of patients (percent)
Heavy menstrual bleeding, TEAEs Due to Any Cause, Any grade (Safety Population, N = 60): 2 (3) number of patients (percent)
Heavy menstrual bleeding, TEAEs Due to Any Cause, Grade 1 (Safety Population, N = 60): 1 (2) number of patients (percent)
Heavy menstrual bleeding, TEAEs Due to Any Cause, Grade 2 (Safety Population, N = 60): 1 (2) number of patients (percent)
Hot flush, TEAEs Due to Any Cause, Any grade (Safety Population, N = 60): 1 (2) number of patients (percent)
Hot flush, TEAEs Due to Any Cause, Grade 2 (Safety Population, N = 60): 1 (2) number of patients (percent)
Hot flush, Treatment-Related TEAEs, Any grade (Safety Population, N = 60): 1 (2) number of patients (percent)
Hot flush, Treatment-Related TEAEs, Grade 2 (Safety Population, N = 60): 1 (2) number of patients (percent)
Hypoesthesia, TEAEs Due to Any Cause, Any grade (Safety Population, N = 60): 1 (2) number of patients (percent)
Hypoesthesia, TEAEs Due to Any Cause, Grade 2 (Safety Population, N = 60): 1 (2) number of patients (percent)
Hypoesthesia, Treatment-Related TEAEs, Any grade (Safety Population, N = 60): 1 (2) number of patients (percent)
Hypoesthesia, Treatment-Related TEAEs, Grade 2 (Safety Population, N = 60): 1 (2) number of patients (percent)
Hypokalemia, TEAEs Due to Any Cause, Any grade (Safety Population, N = 60): 1 (2) number of patients (percent)
Hypokalemia, TEAEs Due to Any Cause, Grade 1 (Safety Population, N = 60): 1 (2) number of patients (percent)
Hypokalemia, Treatment-Related TEAEs, Any grade (Safety Population, N = 60): 1 (2) number of patients (percent)
Hypokalemia, Treatment-Related TEAEs, Grade 1 (Safety Population, N = 60): 1 (2) number of patients (percent)
Hypophosphatemia, TEAEs Due to Any Cause, Any grade (Safety Population, N = 60): 2 (3) number of patients (percent)
Hypophosphatemia, TEAEs Due to Any Cause, Grade 2 (Safety Population, N = 60): 2 (3) number of patients (percent)
Increased white blood cell count, TEAEs Due to Any Cause, Any grade (Safety Population, N = 60): 1 (2) number of patients (percent)
Increased white blood cell count, TEAEs Due to Any Cause, Grade 2 (Safety Population, N = 60): 1 (2) number of patients (percent)
Increased white blood cell count, Treatment-Related TEAEs, Any grade (Safety Population, N = 60): 1 (2) number of patients (percent)
Increased white blood cell count, Treatment-Related TEAEs, Grade 2 (Safety Population, N = 60): 1 (2) number of patients (percent)
Maculo-papular rash, TEAEs Due to Any Cause, Any grade (Safety Population, N = 60): 1 (2) number of patients (percent)
Maculo-papular rash, TEAEs Due to Any Cause, Grade 1 (Safety Population, N = 60): 1 (2) number of patients (percent)
Maculo-papular rash, Treatment-Related TEAEs, Any grade (Safety Population, N = 60): 1 (2) number of patients (percent)
Maculo-papular rash, Treatment-Related TEAEs, Grade 1 (Safety Population, N = 60): 1 (2) number of patients (percent)
Malaise, TEAEs Due to Any Cause, Any grade (Safety Population, N = 60): 1 (2) number of patients (percent)
Malaise, TEAEs Due to Any Cause, Grade 1 (Safety Population, N = 60): 1 (2) number of patients (percent)
Malaise, Treatment-Related TEAEs, Any grade (Safety Population, N = 60): 1 (2) number of patients (percent)
Malaise, Treatment-Related TEAEs, Grade 1 (Safety Population, N = 60): 1 (2) number of patients (percent)
Micturition urgency, TEAEs Due to Any Cause, Any grade (Safety Population, N = 60): 1 (2) number of patients (percent)
Micturition urgency, TEAEs Due to Any Cause, Grade 1 (Safety Population, N = 60): 1 (2) number of patients (percent)
Micturition urgency, Treatment-Related TEAEs, Any grade (Safety Population, N = 60): 1 (2) number of patients (percent)
Micturition urgency, Treatment-Related TEAEs, Grade 1 (Safety Population, N = 60): 1 (2) number of patients (percent)
Muscle spasms, TEAEs Due to Any Cause, Any grade (Safety Population, N = 60): 2 (3) number of patients (percent)
Muscle spasms, TEAEs Due to Any Cause, Grade 1 (Safety Population, N = 60): 2 (3) number of patients (percent)
Muscle spasms, Treatment-Related TEAEs, Any grade (Safety Population, N = 60): 1 (2) number of patients (percent)
Muscle spasms, Treatment-Related TEAEs, Grade 1 (Safety Population, N = 60): 1 (2) number of patients (percent)
Myalgia, TEAEs Due to Any Cause, Any grade (Safety Population, N = 60): 1 (2) number of patients (percent)
Myalgia, TEAEs Due to Any Cause, Grade 1 (Safety Population, N = 60): 1 (2) number of patients (percent)
Myalgia, Treatment-Related TEAEs, Any grade (Safety Population, N = 60): 1 (2) number of patients (percent)
Myalgia, Treatment-Related TEAEs, Grade 1 (Safety Population, N = 60): 1 (2) number of patients (percent)
Nasal congestion, TEAEs Due to Any Cause, Any grade (Safety Population, N = 60): 2 (3) number of patients (percent)
Nasal congestion, TEAEs Due to Any Cause, Grade 1 (Safety Population, N = 60): 1 (2) number of patients (percent)
Nasal congestion, TEAEs Due to Any Cause, Grade 2 (Safety Population, N = 60): 1 (2) number of patients (percent)
Nasopharyngitis, TEAEs Due to Any Cause, Any grade (Safety Population, N = 60): 3 (5) number of patients (percent)
Nasopharyngitis, TEAEs Due to Any Cause, Grade 1 (Safety Population, N = 60): 2 (3) number of patients (percent)
Nasopharyngitis, TEAEs Due to Any Cause, Grade 2 (Safety Population, N = 60): 1 (2) number of patients (percent)
Nausea, TEAEs Due to Any Cause, Any grade (Safety Population, N = 60): 21 (35) number of patients (percent)
Nausea, TEAEs Due to Any Cause, Grade 1 (Safety Population, N = 60): 18 (30) number of patients (percent)
Nausea, TEAEs Due to Any Cause, Grade 2 (Safety Population, N = 60): 3 (5) number of patients (percent)
Nausea, Treatment-Related TEAEs, Any grade (Safety Population, N = 60): 18 (30) number of patients (percent)
Nausea, Treatment-Related TEAEs, Grade 1 (Safety Population, N = 60): 16 (27) number of patients (percent)
Nausea, Treatment-Related TEAEs, Grade 2 (Safety Population, N = 60): 2 (3) number of patients (percent)
Peripheral swelling, TEAEs Due to Any Cause, Any grade (Safety Population, N = 60): 3 (5) number of patients (percent)
Peripheral swelling, TEAEs Due to Any Cause, Grade 1 (Safety Population, N = 60): 3 (5) number of patients (percent)
Petechiae, TEAEs Due to Any Cause, Any grade (Safety Population, N = 60): 4 (7) number of patients (percent)
Petechiae, TEAEs Due to Any Cause, Grade 1 (Safety Population, N = 60): 4 (7) number of patients (percent)
Pruritus, TEAEs Due to Any Cause, Any grade (Safety Population, N = 60): 2 (3) number of patients (percent)
Pruritus, TEAEs Due to Any Cause, Grade 1 (Safety Population, N = 60): 1 (2) number of patients (percent)
Pruritus, TEAEs Due to Any Cause, Grade 2 (Safety Population, N = 60): 1 (2) number of patients (percent)
Pruritus, Treatment-Related TEAEs, Any grade (Safety Population, N = 60): 2 (3) number of patients (percent)
Pruritus, Treatment-Related TEAEs, Grade 1 (Safety Population, N = 60): 1 (2) number of patients (percent)
Pruritus, Treatment-Related TEAEs, Grade 2 (Safety Population, N = 60): 1 (2) number of patients (percent)
Purpura, TEAEs Due to Any Cause, Any grade (Safety Population, N = 60): 2 (3) number of patients (percent)
Purpura, TEAEs Due to Any Cause, Grade 1 (Safety Population, N = 60): 2 (3) number of patients (percent)
Rash, TEAEs Due to Any Cause, Any grade (Safety Population, N = 60): 3 (5) number of patients (percent)
Rash, TEAEs Due to Any Cause, Grade 1 (Safety Population, N = 60): 1 (2) number of patients (percent)
Rash, TEAEs Due to Any Cause, Grade 2 (Safety Population, N = 60): 2 (3) number of patients (percent)
Rash, Treatment-Related TEAEs, Any grade (Safety Population, N = 60): 1 (2) number of patients (percent)
Rash, Treatment-Related TEAEs, Grade 1 (Safety Population, N = 60): 1 (2) number of patients (percent)
Thrombocytopenia, TEAEs Due to Any Cause, Any grade (Safety Population, N = 60): 2 (3) number of patients (percent)
Thrombocytopenia, TEAEs Due to Any Cause, Grade 3/4 (Safety Population, N = 60): 2 (3) number of patients (percent)
Upper abdominal pain, TEAEs Due to Any Cause, Any grade (Safety Population, N = 60): 3 (5) number of patients (percent)
Upper abdominal pain, TEAEs Due to Any Cause, Grade 1 (Safety Population, N = 60): 2 (3) number of patients (percent)
Upper abdominal pain, TEAEs Due to Any Cause, Grade 2 (Safety Population, N = 60): 1 (2) number of patients (percent)
Upper abdominal pain, Treatment-Related TEAEs, Any grade (Safety Population, N = 60): 2 (3) number of patients (percent)
Upper abdominal pain, Treatment-Related TEAEs, Grade 1 (Safety Population, N = 60): 1 (2) number of patients (percent)
Upper abdominal pain, Treatment-Related TEAEs, Grade 2 (Safety Population, N = 60): 1 (2) number of patients (percent)
Upper respiratory tract infection, TEAEs Due to Any Cause, Any grade (Safety Population, N = 60): 3 (5) number of patients (percent)
Upper respiratory tract infection, TEAEs Due to Any Cause, Grade 1 (Safety Population, N = 60): 2 (3) number of patients (percent)
Upper respiratory tract infection, TEAEs Due to Any Cause, Grade 2 (Safety Population, N = 60): 1 (2) number of patients (percent)
Urinary tract infection, TEAEs Due to Any Cause, Any grade (Safety Population, N = 60): 2 (3) number of patients (percent)
Urinary tract infection, TEAEs Due to Any Cause, Grade 1 (Safety Population, N = 60): 1 (2) number of patients (percent)
Urinary tract infection, TEAEs Due to Any Cause, Grade 2 (Safety Population, N = 60): 1 (2) number of patients (percent)
Vomiting, TEAEs Due to Any Cause, Any grade (Safety Population, N = 60): 4 (7) number of patients (percent)
Vomiting, TEAEs Due to Any Cause, Grade 1 (Safety Population, N = 60): 3 (5) number of patients (percent)
Vomiting, TEAEs Due to Any Cause, Grade 2 (Safety Population, N = 60): 1 (2) number of patients (percent)
Vomiting, Treatment-Related TEAEs, Any grade (Safety Population, N = 60): 3 (5) number of patients (percent)
Vomiting, Treatment-Related TEAEs, Grade 1 (Safety Population, N = 60): 2 (3) number of patients (percent)
Vomiting, Treatment-Related TEAEs, Grade 2 (Safety Population, N = 60): 1 (2) number of patients (percent)
TEAE resulting in study drug discontinuation: administrative and site conditions (in vivo): 1 (2%) patients (%)
TEAE resulting in study drug discontinuation: gastrointestinal (GI) disorders (in vivo): 4 (7%) patients (%)
TEAE resulting in study drug discontinuation: lymphatic system disorders (in vivo): 2 (4%) patients (%)
treatment-related any-grade TEAE: diarrhea [1]: 32%
treatment-related any-grade TEAE: fatigue [1]: 10%
treatment-related any-grade TEAE: nausea [1]: 30%
patient death (unrelated to treatment, 400 mg bid discontinued on day 8, pre-existing Evans syndrome): 1 patient

— patent publication US20250255874A1, “Methods for Treating Immune Thrombocytopenia By Administering (R)-2-[3-[4-Amino-3-(2-Fluoro-4-Phenoxy-Phenyl)Pyrazolo[3,4-D]Pyrimidin-1-YL]Piperidine-1-Carbonyl]-4-Methyl-4-[4-(Oxetan-3-YL)Piperazin-1-YL]Pent-2-Enentrile” (Principia Biopharma Inc., priority 2022, published 2025)
